Test results taken from paper PMC11015056 (ACS Infectious Diseases, 2024).

Experiments:
WT N. gonorrhoeae gyrase = WT N. gonorrhoeae gyrase (Neisseria gonorrhoeae, UniProt P22118+P48371); assay: Gyrase-mediated DNA cleavage, WT gyrase; details: GyrA WT; induced by 8-methyl-2,4-quinazolinedione
[1] = molecular target: T1, GyrA^S91F/D95G N. gonorrhoeae gyrase (Neisseria gonorrhoeae, UniProt P22118+P48371, D95G/S91F); assay: Gyrase-catalyzed DNA supercoiling, GyrA S91F/D95G gyrase; type: biochemical; details: ± standard error of the mean, read-out: IC50, inhibition of DNA supercoiling
T1 construct: His-tag; purchased GenScript

[2] = molecular target: T2, ParC^S87N N. gonorrhoeae topoisomerase IV (Neisseria gonorrhoeae, UniProt P48374, S87N); assay: Topoisomerase IV-catalyzed DNA decatenation, ParC S87N; type: biochemical
T2 sequence (P48374 1-768 S87N): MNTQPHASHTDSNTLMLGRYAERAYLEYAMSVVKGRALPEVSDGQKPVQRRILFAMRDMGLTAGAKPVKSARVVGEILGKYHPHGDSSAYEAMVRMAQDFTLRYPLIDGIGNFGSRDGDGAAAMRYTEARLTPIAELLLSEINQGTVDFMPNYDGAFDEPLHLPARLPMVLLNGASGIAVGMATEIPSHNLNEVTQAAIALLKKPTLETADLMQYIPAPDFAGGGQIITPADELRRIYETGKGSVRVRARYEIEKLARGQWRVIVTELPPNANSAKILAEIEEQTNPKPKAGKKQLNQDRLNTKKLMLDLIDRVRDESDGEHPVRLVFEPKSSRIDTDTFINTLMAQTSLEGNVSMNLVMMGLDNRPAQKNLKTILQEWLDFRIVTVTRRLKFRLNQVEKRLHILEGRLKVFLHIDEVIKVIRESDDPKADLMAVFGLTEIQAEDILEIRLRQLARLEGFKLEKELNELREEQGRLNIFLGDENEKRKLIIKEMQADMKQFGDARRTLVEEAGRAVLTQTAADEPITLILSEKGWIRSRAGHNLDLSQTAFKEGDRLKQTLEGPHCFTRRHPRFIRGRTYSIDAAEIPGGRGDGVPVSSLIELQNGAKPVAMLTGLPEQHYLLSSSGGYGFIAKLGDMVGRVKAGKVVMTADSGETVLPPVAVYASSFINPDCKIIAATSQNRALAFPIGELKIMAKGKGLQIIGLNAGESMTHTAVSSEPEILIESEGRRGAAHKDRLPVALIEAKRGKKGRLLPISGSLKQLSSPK

[3] = molecular target: T3, ParC^E91G N. gonorrhoeae topoisomerase IV (Neisseria gonorrhoeae, UniProt P48374, E91G); assay: Topoisomerase IV-catalyzed DNA decatenation, ParC E91G; type: biochemical
T3 sequence (P48374 1-768 E91G): T2 sequence (P48374 1-768 S87N)

[4] = molecular target: T4, ParC^S87N/E91G N. gonorrhoeae topoisomerase IV (Neisseria gonorrhoeae, UniProt P48374, E91G/S87N); assay: Topoisomerase IV-catalyzed DNA decatenation, ParC S87N/E91G; type: biochemical
T4 sequence (P48374 1-768 S87N/E91G): T2 sequence (P48374 1-768 S87N)

[5] = molecular target: WT N. gonorrhoeae topoisomerase IV (Neisseria gonorrhoeae, UniProt P48374); assay: Topoisomerase IV-catalyzed DNA decatenation, WT; type: biochemical
Description: DNA decatenation assays were based on previously published protocols by Anderson et al.[79] and Aldred et al.[30] Assays contained 10 nM WT, 20 nM ParC^S87N, 35 nM ParC^E91G, or 35 nM ParC^S87N/E91GN. gonorrhoeae topoisomerase IV, 5 nM kDNA, and 1 mM ATP in 20 μL of 40 mM HEPES-KOH (pH 7.6), 25 mM NaCl, 100 mM KGlu, and 10 mM Mg(OAc)2. Assay mixtures were incubated at 37 °C for 10 min with WT, 15 min with ParC^S87N, and 30 min with ParC^E91G and ParC^S87N/E91GN. gonorrhoeae topoisomerase IV, which represents the minimum time required to completely decatenate the kDNA in the absence of a drug. Reactions were stopped, subjected to electrophoresis, and visualized as described for gyrase-catalyzed DNA supercoiling.

Sequence of WT N. gonorrhoeae gyrase (P48371 whole entry): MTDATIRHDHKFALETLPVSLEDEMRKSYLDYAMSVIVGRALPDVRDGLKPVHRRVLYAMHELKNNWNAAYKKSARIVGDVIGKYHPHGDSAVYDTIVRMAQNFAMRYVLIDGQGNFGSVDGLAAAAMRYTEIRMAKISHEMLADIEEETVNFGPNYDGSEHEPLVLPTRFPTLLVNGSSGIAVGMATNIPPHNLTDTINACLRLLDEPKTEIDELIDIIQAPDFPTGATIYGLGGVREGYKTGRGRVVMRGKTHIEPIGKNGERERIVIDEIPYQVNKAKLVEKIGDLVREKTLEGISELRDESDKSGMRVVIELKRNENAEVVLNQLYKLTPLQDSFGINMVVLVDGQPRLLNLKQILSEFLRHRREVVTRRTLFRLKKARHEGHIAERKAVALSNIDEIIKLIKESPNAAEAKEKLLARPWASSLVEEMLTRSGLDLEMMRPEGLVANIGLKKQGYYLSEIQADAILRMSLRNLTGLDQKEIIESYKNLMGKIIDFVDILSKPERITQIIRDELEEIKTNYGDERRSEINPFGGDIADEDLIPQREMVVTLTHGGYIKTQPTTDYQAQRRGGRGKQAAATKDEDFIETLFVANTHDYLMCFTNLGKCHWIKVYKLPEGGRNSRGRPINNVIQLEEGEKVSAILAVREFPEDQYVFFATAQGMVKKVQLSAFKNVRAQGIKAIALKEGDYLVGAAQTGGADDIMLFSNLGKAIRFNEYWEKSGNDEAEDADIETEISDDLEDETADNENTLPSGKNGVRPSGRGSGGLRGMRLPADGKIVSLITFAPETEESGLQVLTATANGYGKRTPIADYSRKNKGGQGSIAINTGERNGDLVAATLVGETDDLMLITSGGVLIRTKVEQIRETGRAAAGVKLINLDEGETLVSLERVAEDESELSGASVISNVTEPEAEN
Sequence of WT N. gonorrhoeae gyrase (P22118 whole entry): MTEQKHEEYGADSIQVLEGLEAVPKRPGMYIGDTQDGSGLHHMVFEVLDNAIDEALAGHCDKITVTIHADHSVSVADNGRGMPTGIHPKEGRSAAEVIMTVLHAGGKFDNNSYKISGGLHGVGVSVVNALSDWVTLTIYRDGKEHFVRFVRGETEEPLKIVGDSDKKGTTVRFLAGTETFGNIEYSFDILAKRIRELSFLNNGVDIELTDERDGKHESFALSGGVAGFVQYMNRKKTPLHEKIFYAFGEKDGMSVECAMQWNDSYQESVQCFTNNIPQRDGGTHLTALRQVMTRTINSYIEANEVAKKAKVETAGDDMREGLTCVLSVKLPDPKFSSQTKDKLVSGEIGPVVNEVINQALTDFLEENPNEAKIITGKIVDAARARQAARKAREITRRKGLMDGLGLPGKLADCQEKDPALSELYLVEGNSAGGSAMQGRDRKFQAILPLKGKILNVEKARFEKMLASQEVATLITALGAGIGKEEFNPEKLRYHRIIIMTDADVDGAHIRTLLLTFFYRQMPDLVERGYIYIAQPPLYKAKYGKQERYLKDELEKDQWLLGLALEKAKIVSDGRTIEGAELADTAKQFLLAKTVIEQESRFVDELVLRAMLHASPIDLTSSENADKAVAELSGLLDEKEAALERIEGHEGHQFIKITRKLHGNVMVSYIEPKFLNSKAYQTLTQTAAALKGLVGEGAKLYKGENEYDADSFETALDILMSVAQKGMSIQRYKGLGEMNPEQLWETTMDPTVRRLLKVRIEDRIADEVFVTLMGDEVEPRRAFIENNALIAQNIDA
T1 sequence (P48371 whole entry, looked up, stated change not applied): as the sequence (P48371 whole entry) above
T1 sequence (P22118 whole entry, stated change not applied): as the sequence (P22118 whole entry) above

Structure (SMILES)	Max % DSB (WT N. gonorrhoeae gyrase) [%]	IC50 [1] [µM]	IC50 [2] [µM]	IC50 [3] [µM]	IC50 [4] [µM]	IC50 [5] [µM]
Cc1c(N2CC[C@@H](CN)C2)c(F)cc2c(=O)n(N)c(=O)n(C3CC3)c12 [8-Me-2,4-QD, 3-Amino-7-[(3S)-3-(aminomethyl)-1-pyrrolidinyl]-1-cyclopropyl-6-fluoro-8-methyl-2,4(1H,3H)-quinazolinedione]	28.9	19.7	–	–	–	–
O=C(O)c1cn(C2CC2)c2cc(N3CCNCC3)c(F)cc2c1=O [Ciprofloxacin]	–	–	16.4	301 ± 23.8	> 500	13.7
